Results from ChEMBL document CHEMBL6109158, “Discovery of Novel Bifunctional Agents as Potent Androgen Receptor Antagonists and Degraders for the Treatment of Enzalutamide-Resistant Prostate Cancer” (J Med Chem, 2025).

Experiments:
CWR22R = test: cells; assay type: functional, cell-based; conditions: Homo sapiens, 22Rv1, […]
Description: Antiproliferative activity against human 22Rv1 cells assessed as inhibition of cell growth incubated for 7 days by celltiter-glo assay

in vivo [1] = conditions: male, C57BL/6, mouse, iv, 1 mg/kg
Description: Volume of distribution at steady state in male C57BL/6 mouse at 1 mg/kg, iv

in vitro [2] = conditions: human, microsomes
in vivo [3] = conditions: male, C57BL/6, mouse, iv, 1 mg/kg; remark: listed apart in the source
Description: Clearance in male C57BL/6 mouse at 1 mg/kg, iv

in vitro [4] = conditions: human, microsomes; remark: listed apart in the source
cells = assay type: functional, cell-based; conditions: Homo sapiens, Enzalutamide-resistant C4-2B
LNCaP C4-2 = test: cells; assay type: functional, cell-based; conditions: Homo sapiens
Description: Antiproliferative activity against human C4-2 cells assessed as inhibition of cell growth incubated for 7 days by celltiter-glo assay

in vitro [5] = conditions: mouse, microsomes
Description: Metabolic stability in mouse liver microsomes assessed as half life

in vivo [6] = conditions: male, C57BL/6, mouse, iv, 1 mg/kg; remark: listed apart in the source
in vitro [7] = conditions: mouse, microsomes; remark: listed apart in the source
LNCaP = test: cells; assay type: functional, cell-based; conditions: Homo sapiens
Description: Antiproliferative activity against human LNCaP cells assessed as inhibition of cell growth incubated for 7 days by celltiter-glo assay

in vivo [8] = conditions: male, C57BL/6, mouse, iv, 1 mg/kg; remark: listed apart in the source
Description: C0 in male C57BL/6 mouse at 1 mg/kg, iv

in vivo [9] = conditions: male, C57BL/6, mouse, iv, 1 mg/kg; remark: listed apart in the source
Description: Half life in male C57BL/6 mouse at 1 mg/kg, iv

in vivo [10] = conditions: male, C57BL/6, mouse, brain, iv, 1 mg/kg
Description: Ratio of drug concentration in male C57BL/6 mouse brain to plasma at 1 mg/kg, iv measured after 1 hr

## COc1cc(C#N)ccc1N1C2CCC1CN(C[C@](C)(O)C(=O)Nc1ccc(C#N)c(C(F)(F)F)c1)C2
CWR22R
  IC50: 4.12 µM

## C[C@](O)(CN1CC2CCC(C1)N2c1ccc(F)cc1)C(=O)Nc1ccc(C#N)c(C(F)(F)F)c1
CWR22R
  IC50: 12.9 µM

## C[C@](O)(CN1C[C@@H]2C[C@H]1CN2c1ccc(C#N)cc1)C(=O)Nc1ccc(C#N)c(C(F)(F)F)c1
CWR22R
  IC50: 10 µM

## C[C@](O)(CN1CC2CCC(C1)N2c1ccc(C#N)cn1)C(=O)Nc1ccc(C#N)c(C(F)(F)F)c1
CWR22R
  IC50: 2.28 µM

## COc1c(C#N)ccc(NC(=O)[C@@](C)(O)CN2CC3CCC(C2)N3c2ccc(C#N)cc2)c1F
CWR22R
  IC50: 5.3 µM

## C[C@](O)(CN1CC2CCC(C1)N2c1cnc(C#N)nc1)C(=O)Nc1ccc(C#N)c(C(F)(F)F)c1
CWR22R
  IC50: 5.24 µM

## COc1cc(NC(=O)[C@@](C)(O)CN2CC3CCC(C2)N3c2ccc(C#N)cc2)ccc1C#N
CWR22R
  IC50: 2.23 µM

## C[C@](O)(CN1CC2CCC(C1)N2c1ccc(C#N)cc1)C(=O)Nc1ccc(C#N)c(Cl)c1
In vivo [1]
  Vd: 1.87 L/kg
In vitro [2]
  microsomal CLint: 139 µL/min/mg
In vivo [3]
  clearance: 7.09 mL/min/kg
In vitro [4]
  half-life: 9.95 min
cells
  IC50: 5.23 µM
LNCaP C4-2
  IC50: 1.19 µM
In vitro [5]
  half-life: 12.2 min
In vivo [6]
  AUC(0-t): 2330 ng·h/mL
In vitro [7]
  microsomal CLint: 114 µL/min/mg
LNCaP
  IC50: 1.57 µM
In vivo [8]
  C0: 1420 ng/mL
In vivo [9]
  half-life: 244 min
In vivo [10]
  Kp at 1 h: 0.55

## C[C@](O)(CN1CC2CCC(C1)N2c1ncc(C#N)cn1)C(=O)Nc1ccc(C#N)c(C(F)(F)F)c1
CWR22R
  IC50: 4.05 µM

## CC(O)c1cc(C(=O)N[C@@H](C)Cn2ccc(-c3ccc(C#N)c(Cl)c3)n2)n[nH]1 (some centres not stated) [DAROLUTAMIDE]
CWR22R
  IC50: 31.2 µM

## C[C@](O)(CN1CC2CCC(C1)N2c1ccc(C#N)cc1)C(=O)Nc1cnc(C#N)c(Cl)c1
In vivo [1]
  Vd: 1.42 L/kg
In vivo [3]
  clearance: 16.2 mL/min/kg
CWR22R
  IC50: 1.68 µM
In vivo [6]
  AUC(0-t): 1030 ng·h/mL
In vivo [8]
  C0: 1140 ng/mL
In vivo [9]
  half-life: 96.6 min
In vivo [10]
  Kp at 1 h: 0.33

## C[C@](O)(CN1CC2CCC(C1)N2c1cnc(C#N)nc1)C(=O)Nc1cnc(C#N)c(C(F)(F)F)c1
CWR22R
  IC50: 15.8 µM

## C[C@]12CC[C@H](O)CC1=CC[C@@H]1[C@@H]2CC[C@]2(C)C(n3cnc4ccccc43)=CC[C@@H]12 [GALETERONE]
CWR22R
  IC50: 12 µM

## Cc1cc(C#N)ccc1N1C2CCC1CN(C[C@](C)(O)C(=O)Nc1ccc(C#N)c(C(F)(F)F)c1)C2
CWR22R
  IC50: 3.08 µM

## C[C@](O)(CN1CC2CCC(C1)N2c1ccc(C#N)cc1)C(=O)Nc1ccc([N+](=O)[O-])c(C(F)(F)F)c1
CWR22R
  IC50: 1.65 µM

## C[C@](O)(Cn1ccc2cc(F)ccc21)C(=O)Nc1ccc(C#N)c(C(F)(F)F)c1
CWR22R
  IC50: 3.53 µM

## N#Cc1ccc(O[C@H]2CC[C@H](NC(=O)c3ccc(N4CCC(CN5CCN(c6cc7c(cc6F)C(=O)N(C6CCC(=O)NC6=O)C7=O)CC5)CC4)nn3)CC2)cc1Cl (some centres not stated) [BAVDEGALUTAMIDE]
CWR22R
  IC50: > 100 µM

## CNC(=O)c1ccc(N2C(=S)N(c3cnc(C#N)c(C(F)(F)F)c3)C(=O)C23CCC3)cc1F [APALUTAMIDE]
CWR22R
  IC50: > 100 µM

## C[C@](O)(CN1CC2CCC(C1)N2Cc1ccc(C#N)cc1)C(=O)Nc1ccc(C#N)c(C(F)(F)F)c1
CWR22R
  IC50: 20.5 µM
